Test results from ChEMBL document CHEMBL4130583, “Artocarmins G-M, Prenylated 4-Chromenones from the Stems of Artocarpus rigida and Their Tyrosinase Inhibitory Activities” (J Nat Prod, 2017).

How the values were obtained:
Tyrosinase = target: T1, Tyrosinase (Homo sapiens, UniProt P14679); assay: Inhibition of tyrosinase (unknown origin) using L-dihydroxyphenylalanine as substrate preincubated for 30 mins followed by substrate addition measured for 7 mins by spectrophotometric analysis
T1 sequence (P14679 whole entry): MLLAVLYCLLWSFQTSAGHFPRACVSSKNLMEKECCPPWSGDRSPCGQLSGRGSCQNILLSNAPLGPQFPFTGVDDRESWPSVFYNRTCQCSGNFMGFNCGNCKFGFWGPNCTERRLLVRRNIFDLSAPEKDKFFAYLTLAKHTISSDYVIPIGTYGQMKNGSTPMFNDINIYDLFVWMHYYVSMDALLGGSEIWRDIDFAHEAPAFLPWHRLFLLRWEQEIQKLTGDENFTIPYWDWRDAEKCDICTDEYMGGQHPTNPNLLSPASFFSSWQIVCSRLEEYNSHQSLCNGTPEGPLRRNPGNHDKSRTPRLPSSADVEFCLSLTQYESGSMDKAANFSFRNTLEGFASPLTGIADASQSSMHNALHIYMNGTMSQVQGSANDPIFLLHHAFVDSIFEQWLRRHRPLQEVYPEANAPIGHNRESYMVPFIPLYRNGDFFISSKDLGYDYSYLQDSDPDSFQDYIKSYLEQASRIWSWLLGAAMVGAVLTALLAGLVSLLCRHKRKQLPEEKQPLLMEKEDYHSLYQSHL

[1] = target: T2, Tyrosinase (Homo sapiens) (UniProt P14679); assay: Potency index, ratio of kojic acid IC50 to compound IC50 for tyrosinase (unknown origin)
T2 sequence (whole entry): T1 sequence (P14679 whole entry)

| IC50 (Tyrosinase) | Ratio IC50 [1] | Structure (SMILES) |
| --- | --- | --- |
| 45.3 µM | – | COc1c(-c2oc3cc(O)cc(O)c3c(=O)c2CC=C(C)C)cc(O)c(O)c1CC=C(C)C |
| 0.023 µM | 1900 | O=c1cc(-c2ccc(O)cc2O)oc2cc(O)cc(O)c12 [NORARTOCARPETIN] |
